Assay results from ChEMBL document CHEMBL5038614, “Discovery of styrylaniline derivatives as novel alpha-synuclein aggregates ligands” (Eur J Med Chem, 2021).
The source made the active and inactive calls. The calls are words filed in the database; no cut-off is given here.

How the values were obtained:
Alpha-synuclein = Alpha-synuclein (Homo sapiens, UniProt P37840); test: Binding affinity to recombinant human alpha-syn aggregates assessed as dissociation constant by SPR analysis
Mus musculus [1] = species on record: Mus musculus; test: Binding affinity to alpha-syn PFF in chronic C57BL/6 mouse M2 motor cortex measured for 1 hrs by immunofluorescence confocal microscopic analysis; type: tissue-based
Mus musculus [2] = species on record: Mus musculus; test: Binding affinity to alpha-syn PFF in acute C57BL/6 mouse brain striatum measured after 1 hrs by immunofluorescence confocal microscopic analysis; type: tissue-based
Mus musculus [3] = species on record: Mus musculus; test: Binding affinity to alpha-syn PFF in chronic C57BL/6 mouse brain straitum measured for 1 hrs by immunofluorescence confocal microscopic analysis; type: tissue-based; settings: Striatum
[4] = Plasma concentration in Sprague-Dawley rat at 5 mg/kg, iv measured upto 120 mins by LC-MS/MS analysis; type: ADME, organism-based
[5] = Brain concentration in Sprague-Dawley rat at 5 mg/kg, iv measured upto 120 mins by LC-MS/MS analysis; type: ADME, organism-based; settings: read-out: Ct
[6] = Ratio of drug concentration in Sprague-Dawley rat brain to plasma at 5 mg/kg, iv measured upto 120 mins by LC-MS/MS analysis; type: ADME, organism-based; settings: read-out: BPR
[7] = Permeability of compound in BBB assay; type: ADME

Q: With `O=C(Nc1ccccc1/C=C/c1ccc(F)cc1)c1cccnn1` as the molecule, how does the Kd (Alpha-synuclein) read?
A: > 10 µM

Q: With `O=C(Nc1ccccc1/C=C/c1ccc([N+](=O)[O-])cc1)c1ccccn1` as the molecule, how does the Activity (Mus musculus [1]) read?
A: Active

Q: And the Activity (Mus musculus [2])?
A: Active

Q: What about the Activity (Mus musculus [3]) of the same molecule?
A: Active

Q: What about the concentration at 2 h [4] of the same molecule?
A: 38.5 µM

Q: What about the concentration at 2 h [5] of the same molecule?
A: 46.8 µM

Q: What about the Kp at 2 h [6] of the same molecule?
A: 1.21

Q: What about the pBBB [7] of the same molecule?
A: > 0.3

Q: For `COc1ccc(/C=C/c2ccccc2NC(=O)NCc2cnccn2)cc1`, which Kd (Alpha-synuclein) is on record?
A: > 10 µM

Q: Which Kd (Alpha-synuclein) does the source give for `COc1ccc(/C=C/c2ccc(NC(=O)c3ccccc3)cc2)cc1` here?
A: > 10 µM

Q: For `COc1ccc(/C=C/c2ccccc2NC(=O)c2cccs2)cc1`, which Kd (Alpha-synuclein) is on record?
A: > 10 µM

Q: Which Activity (Mus musculus [2]) does the source give for `CN(C)c1ccc(/C=C/c2ccccc2NC(=O)c2ccccn2)cc1` here?
A: inactive

Q: What about the Activity (Mus musculus [3]) of the same molecule?
A: Active

Q: And the concentration at 2 h [4]?
A: 6.06 µM

Q: And the concentration at 2 h [5]?
A: 15.9 µM

Q: And the Kp at 2 h [6]?
A: 2.62

Q: What about the pBBB [7] of the same molecule?
A: > 0.3

Q: For `COc1ccc(/C=C/c2ccccc2NC(=O)c2cccnn2)cc1`, which Kd (Alpha-synuclein) is on record?
A: > 10 µM

Q: For `O=C(Nc1ccc(/C=C/c2ccc(F)cc2)cc1)c1ccccc1`, which Kd (Alpha-synuclein) is on record?
A: > 10 µM

Q: Which Kd (Alpha-synuclein) does the source give for `COc1ccc(/C=C/c2ccccc2NC(=O)c2cccnc2)cc1` here?
A: > 10 µM

Q: For `O=C(Nc1ccccc1/C=C/c1ccc([N+](=O)[O-])cc1)c1cccnn1`, which Kd (Alpha-synuclein) is on record?
A: > 10 µM
